Experimental data reported in patent US20050197350A1, “Novel quinoline, tetrahydroquinazoline, and pyrimidine derivatives and methods of treatment related to the use thereof” (TAISHO PHARMACEUTICAL CO., LTD., priority 2003, published 2005).

What follows are molecules tested on MCH receptors (assay: MCH receptor activity class (method not given)). Details: MCH receptor activity class 1-3 (percent of control at 10^-7 M or IC50).
For `Cc1cc(Cl)ccc1NC(=S)N[C@H]1CC[C@@H](Nc2nccc(N(C)C)n2)CC1` [compound 2331], the class was 3 (Class 3 The value of percent of control at 10^−7 M was more than 60% or the value of IC50 was more than 200 nM.). With `Cc1cc(Cl)ccc1NC(=S)N[C@H]1CC[C@@H](Nc2cc(N(C)C)c3ccccc3n2)CC1` [compound 2286] the class was 3 (Class 3 The value of percent of control at 10^−7 M was more than 60% or the value of IC50 was more than 200 nM.).

Same assay, conditions: MCH receptor; class by percent of control at 10^-7 M or IC50
For `CN(C)c1cc(N[C@H]2CC[C@@H](CNC(=O)c3ccc4c(c3)OCO4)CC2)nc2ccccc12` [compound 174], the class was 3 (Class 3 The value of percent of control at 10^−7 M was more than 60% or the value of IC50 was more than 200 nM.). With `Cc1cc(C(=O)N[C@H]2CC[C@@H](Nc3cc(N(C)C)c4ccccc4n3)CC2)c(C(F)(F)F)o1` [compound 70] the class was 3 (Class 3 The value of percent of control at 10^−7 M was more than 60% or the value of IC50 was more than 200 nM.). `CN(C)c1cc(N[C@H]2CC[C@@H](CNC(=O)c3cccc(OC(F)(F)F)c3)CC2)nc2ccccc12` [compound 181, N-[(cis-4-{[4-(dimethylamino)quinolin-2-yl]amino}cyclohexyl)methyl]-3-(trifluoromethoxy)benzamide] was tested, and the class was 3 (Class 3 The value of percent of control at 10^−7 M was more than 60% or the value of IC50 was more than 200 nM.).

Same assay, conditions: activity class 1-3: percent of control at 10^-7 M or IC50
For `CN(C)c1ccnc(N[C@H]2CC[C@@H](NC[C@@H](COCc3ccccc3)OCc3ccccc3)CC2)n1` [compound 1521], the class was 3 (Class 3 The value of percent of control at 10^−7 M was more than 60% or the value of IC50 was more than 200 nM.). In the case of `COCCOC(=O)NC[C@H]1CC[C@@H](Nc2nc3c(c(N(C)C)n2)CCCC3)CC1` [compound 1605], the class is reported as 3 (Class 3 The value of percent of control at 10^−7 M was more than 60% or the value of IC50 was more than 200 nM.). `CC(C)[C@@H]1CC[C@@H](C)CC1OC(=O)NC[C@H]1CC[C@@H](Nc2nccc(N(C)C)n2)CC1` (stereo partly shown) [compound 1653] was tested, and the class was 3 (Class 3 The value of percent of control at 10^−7 M was more than 60% or the value of IC50 was more than 200 nM.). `CN(C)c1nc(N[C@H]2CC[C@@H](NC(=O)Oc3ccc4ccccc4c3)CC2)nc2c1CCCC2` [compound 1589] was tested, and the class was 3 (Class 3 The value of percent of control at 10^−7 M was more than 60% or the value of IC50 was more than 200 nM.).

Same assay, conditions: activity class per percent of control at 10^-7 M or IC50
In the case of `CN(C)c1nc(N[C@H]2CC[C@@H](CNC(=O)CCc3ccccc3O)CC2)nc2c1CCCC2` [compound 1067], the class is reported as 3 (Class 3 The value of percent of control at 10^−7 M was more than 60% or the value of IC50 was more than 200 nM.). With `CN(C)c1nc(N[C@H]2CC[C@@H](CNC(=O)Cc3csc4ccccc34)CC2)nc2c1CCCC2` [compound 1084] the class was 3 (Class 3 The value of percent of control at 10^−7 M was more than 60% or the value of IC50 was more than 200 nM.). For `CC(C(=O)N[C@H]1CC[C@@H](Nc2nc3c(c(N(C)C)n2)CCCC3)CC1)c1ccc(N2Cc3ccccc3C2=O)cc1` (stereo partly drawn) [compound 985, N-(cis-4-{[4-(dimethylamino)-5,6,7,8-tetrahydroquinazolin-2-yl]amino}cyclohexyl)-2-[4-(1-oxo-1,3-dihydro-2H-isoindol-2-yl)pheny]propanamide], the class was 2 (Class 2: The value of percent of control at 10^−7 M was from 40% to 60% or the value of IC′50 was from 50 nM to 200 nM.).

Same assay, conditions: class by percent of control at 10^-7 M or IC50
`CN(C)c1nc(N[C@H]2CC[C@@H](CNCc3ccc(CO)o3)CC2)nc2c1CCCC2` [compound 1397] was tested, and the class was 3 (Class 3 The value of percent of control at 10^−7 M was more than 60% or the value of IC50 was more than 200 nM.). With `CN(C)c1ccnc(N[C@H]2CC[C@@H](NC(=O)Cc3ccc(F)cc3)CC2)n1` [compound 286] the class was 3 (Class 3 The value of percent of control at 10^−7 M was more than 60% or the value of IC50 was more than 200 nM.). `COc1cc(OC)c(OC)cc1CNC[C@H]1CC[C@@H](Nc2nccc(N(C)C)n2)CC1` [compound 1296] was tested, and the class was 2 (Class 2: The value of percent of control at 10^−7 M was from 40% to 60% or the value of IC′50 was from 50 nM to 200 nM.). In the case of `CN(C)c1nc(N[C@H]2CC[C@@H](CNC(=O)c3cc(C(C)(C)C)nn3Cc3ccccc3)CC2)nc2c1CCCC2` [compound 647], the class is reported as 3 (Class 3 The value of percent of control at 10^−7 M was more than 60% or the value of IC50 was more than 200 nM.). For `CN(C)c1nc(N[C@H]2CC[C@@H](NC(=O)Nc3cccc(Cl)c3Cl)CC2)nc2c1CCCC2` [compound 1795], the class was 2 (Class 2: The value of percent of control at 10^−7 M was from 40% to 60% or the value of IC′50 was from 50 nM to 200 nM.). For `COc1ccc2ccccc2c1CN[C@H]1CC[C@@H](Nc2nccc(N(C)C)n2)CC1` [compound 1211], the class was 3 (Class 3 The value of percent of control at 10^−7 M was more than 60% or the value of IC50 was more than 200 nM.). With `CN(C)c1ccnc(N[C@H]2CC[C@@H](CNCc3ccc4c(c3)OCO4)CC2)n1` [compound 1303] the class was 3 (Class 3 The value of percent of control at 10^−7 M was more than 60% or the value of IC50 was more than 200 nM.). For `CN(C)c1nc(N[C@H]2CC[C@@H](CNCc3c[nH]c4ccccc34)CC2)nc2c1CCCC2` [compound 1366], the class was 2 (Class 2: The value of percent of control at 10^−7 M was from 40% to 60% or the value of IC′50 was from 50 nM to 200 nM.). In the case of `CN(C)c1ccnc(N[C@H]2CC[C@@H](NC(=O)c3ccc(Cl)cc3)CC2)n1` [compound 243], the class is reported as 2 (Class 2: The value of percent of control at 10^−7 M was from 40% to 60% or the value of IC′50 was from 50 nM to 200 nM.). `CN(C)c1cc(N[C@H]2CC[C@@H](CNC(=O)/C=C/c3ccccc3Cl)CC2)nc2ccccc12` [compound 234, (2E)-3-(2-chlorophenyl)-N-[(cis-4-{[4-(dimethylamino)quinolin-2-yl]amino}cyclohexyl)methyl]acrylamide] was tested, and the class was 2 (Class 2: The value of percent of control at 10^−7 M was from 40% to 60% or the value of IC′50 was from 50 nM to 200 nM.). In the case of `C[C@@H](NC(=O)c1ccccc1C(=O)N[C@H]1CC[C@@H](Nc2cc(N(C)C)c3ccccc3n2)CC1)c1cccc2ccccc12` [compound 737], the class is reported as 3 (Class 3 The value of percent of control at 10^−7 M was more than 60% or the value of IC50 was more than 200 nM.). With `Cc1ccccc1CNC(=O)N[C@H]1CC[C@@H](Nc2nc3c(c(N(C)C)n2)CCCC3)CC1` [compound 1716] the class was 3 (Class 3 The value of percent of control at 10^−7 M was more than 60% or the value of IC50 was more than 200 nM.). With `COc1cc(OC)c(CNC[C@H]2CC[C@@H](Nc3nccc(N(C)C)n3)CC2)cc1Br` [compound 1265] the class was 1 (Class 1: The value of percent of control at 10^−7 M was less than 40% or the value of IC50 was less than 50 nM.). `CN(C)c1cc(N[C@H]2CC[C@@H](NCCOc3ccccc3Cl)CC2)nc2ccccc12` [compound 1449] was tested, and the class was 3 (Class 3 The value of percent of control at 10^−7 M was more than 60% or the value of IC50 was more than 200 nM.). `CN(C)c1nc(N[C@H]2CC[C@@H](CNC(=O)CSc3ccccc3)CC2)nc2c1CCCC2` [compound 625] was tested, and the class was 3 (Class 3 The value of percent of control at 10^−7 M was more than 60% or the value of IC50 was more than 200 nM.). `CN(C)c1nc(N[C@H]2CC[C@@H](NC(=O)Nc3cc(F)ccc3F)CC2)nc2c1CCCC2` [compound 1848] was tested, and the class was 3 (Class 3 The value of percent of control at 10^−7 M was more than 60% or the value of IC50 was more than 200 nM.). In the case of `COc1ccc2[nH]c(C)c(CC(=O)N[C@H]3CC[C@@H](Nc4nc5c(c(N(C)C)n4)CCCC5)CC3)c2c1` [compound 958], the class is reported as 2 (Class 2: The value of percent of control at 10^−7 M was from 40% to 60% or the value of IC′50 was from 50 nM to 200 nM.). With `Cc1ccc(Cl)c(C(=O)NC[C@H]2CC[C@@H](Nc3cc(N(C)C)c4ccccc4n3)CC2)c1F` [compound 235] the class was 3 (Class 3 The value of percent of control at 10^−7 M was more than 60% or the value of IC50 was more than 200 nM.). With `Cc1ccc(CNC[C@H]2CC[C@@H](Nc3nc4c(c(N(C)C)n3)CCCC4)CC2)cc1` [compound 1428] the class was 3 (Class 3 The value of percent of control at 10^−7 M was more than 60% or the value of IC50 was more than 200 nM.).

Same assay, conditions: class by percent of control at 10^−7 M or IC50
In the case of `Cc1cnc(NC[C@H]2CC[C@@H](NC(=O)c3ccc(OC(F)(F)F)cc3)CC2)nc1N(C)C` [compound 2722], the class is reported as 3 (Class 3 The value of percent of control at 10^−7 M was more than 60% or the value of IC50 was more than 200 nM.). For `Cc1cc(N(C)C)nc(N[C@H]2CC[C@@H](C(=O)NCc3cccc(I)c3)CC2)n1` [compound 2806, cis-4-{[4-(dimethylamino)-6-methylpyrimidin-2-yl]amino}-N-(3-iodobenzyl)cyclohexanecarboxamide], the class was 1 (Class 1: The value of percent of control at 10^−7 M was less than 40% or the value of IC50 was less than 50 nM.). `CCOc1cccc(C(=O)N[C@H]2CC[C@@H](Nc3ncc(C)c(N(C)C)n3)CC2)c1` [compound 2927, N-(cis-4-{[4-(dimethylamino)-5-methylpyrimidin-2-yl]amino}cyclohexyl)-3-ethoxybenzamide] was tested, and the class was 2 (Class 2: The value of percent of control at 10^−7 M was from 40% to 60% or the value of IC′50 was from 50 nM to 200 nM.). `Cc1cnc(N[C@H]2CC[C@@H](NC(=O)c3cccnc3Oc3cccc(Cl)c3)CC2)nc1N(C)C` [compound 2893, 2-(3-chlorophenoxy)-N-(cis-4-{[4-(dimethylamino)-5-methylpyrimidin-2-yl]amino}cyclohexyl)nicotinamide] was tested, and the class was 1 (Class 1: The value of percent of control at 10^−7 M was less than 40% or the value of IC50 was less than 50 nM.). `Cc1nc(N[C@H]2CC[C@@H](NC(=O)c3cccc(Cl)c3)CC2)nc(N(C)C)c1C` [compound 2838, 3-chloro-N-(cis-4-{[4-(dimethylamino)-5,6-dimethylpyrimidin-2-yl]amino}cyclohexyl)benzamide] was tested, and the class was 1 (Class 1: The value of percent of control at 10^−7 M was less than 40% or the value of IC50 was less than 50 nM.). `Cc1ccc([C@H](C)NC(=O)[C@H]2CC[C@@H](Nc3nc(C)cc(N(C)C)n3)CC2)cc1` [compound 2795] was tested, and the class was 1 (Class 1: The value of percent of control at 10^−7 M was less than 40% or the value of IC50 was less than 50 nM.).
